How the values were obtained:
[1] = Half-life in the presence of total cell extract(TCE) was evaluated.; assay type: ADME
[2] = Half-life in the presence of pig liver esterase(PLE) was evaluated.; assay type: ADME, tissue-based, Sus scrofa
[3] = Lipophilicity of compound evaluated by HPLC retention time on reverse phase C18 column; assay type: physicochemical
[4] = Half-life in the presence of pig liver esterase(PLE) was evaluated; […]; assay type: ADME, Sus scrofa; conditions: in vitro

Compound | half-life [1] [h] | half-life [2] [min] | Retention time [3] [min] | T1/2 [4]
CO[C@@H]1[C@H](OP(=O)(O)O)[C@@H](COP(=O)(O)O[C@H]2[C@@H](OC)[C@H](n3ccc(=O)[nH]c3=O)O[C@@H]2COP(=O)(O)O[C@H]2[C@@H](OC)[C@H](n3ccc(=O)[nH]c3=O)O[C@@H]2COP(=O)(OCCSC(=O)C(C)(C)C)O[C@H]2C[C@H](n3cc(C)c(=O)[nH]c3=O)O[C@@H]2COP(=O)(OCCSC(=O)C(C)(C)C)O[C@H]2C[C@H](n3cc(C)c(=O)[nH]c3=O)O[C@@H]2COP(=O)(OCCSC(=O)C(C)(C)C)O[C@H]2C[C@H](n3cc(C)c(=O)[nH]c3=O)O[C@@H]2COP(=O)(OCCSC(=O)C(C)(C)C)O[C@H]2C[C@H](n3cc(C)c(=O)[nH]c3=O)O[C@@H]2COP(=O)(OCCSC(=O)C(C)(C)C)O[C@H]2C[C@H](n3cc(C)c(=O)[nH]c3=O)O[C@@H]2COP(=O)(OCCSC(=O)C(C)(C)C)O[C@H]2C[C@H](n3cc(C)c(=O)[nH]c3=O)O[C@@H]2COP(=O)(O)O[C@H]2[C@@H](OC)[C@H](n3cc(C)c(=O)[nH]c3=O)O[C@@H]2COP(=O)(O)O[C@H]2[C@@H](OC)[C@H](n3ccc(=O)[nH]c3=O)O[C@@H]2COP(=O)(O)O[C@H]2[C@@H](OC)[C@H](n3ccc(=O)[nH]c3=O)O[C@@H]2CO)O[C@H]1n1ccc(=O)[nH]c1=O (stereo not given in full) | 0.25 | 5 | 54.7 | 
Cc1cn([C@H]2C[C@H](OP(=O)(O)S)[C@@H](COP(=O)(OCCSC(=O)C(C)(C)C)O[C@H]3C[C@H](n4cc(C)c(=O)[nH]c4=O)O[C@@H]3COP(=O)(S)O[C@H]3C[C@H](n4cc(C)c(=O)[nH]c4=O)O[C@@H]3COP(=O)(OCCSC(=O)C(C)(C)C)O[C@H]3C[C@H](n4cc(C)c(=O)[nH]c4=O)O[C@@H]3COP(=O)(S)O[C@H]3C[C@H](n4cc(C)c(=O)[nH]c4=O)O[C@@H]3COP(=O)(OCCSC(=O)C(C)(C)C)O[C@H]3C[C@H](n4cc(C)c(=O)[nH]c4=O)O[C@@H]3COP(=O)(S)O[C@H]3C[C@H](n4cc(C)c(=O)[nH]c4=O)O[C@@H]3COP(=O)(OCCSC(=O)C(C)(C)C)O[C@H]3C[C@H](n4cc(C)c(=O)[nH]c4=O)O[C@@H]3COP(=O)(S)O[C@H]3C[C@H](n4cc(C)c(=O)[nH]c4=O)O[C@@H]3COP(=O)(OCCSC(=O)C(C)(C)C)O[C@H]3C[C@H](n4cc(C)c(=O)[nH]c4=O)O[C@@H]3COP(=O)(S)O[C@H]3C[C@H](n4cc(C)c(=O)[nH]c4=O)O[C@@H]3COP(=O)(OCCSC(=O)C(C)(C)C)O[C@H]3C[C@H](n4cc(C)c(=O)[nH]c4=O)O[C@@H]3CO)O2)c(=O)[nH]c1=O (stereo not given in full) | 3 |  | 51.9 | Stable
Cc1cn([C@H]2C[C@H](OP(=O)(O)O)[C@@H](COP(=O)(OCCSC(=O)C(C)(C)C)O[C@H]3C[C@H](n4cc(C)c(=O)[nH]c4=O)O[C@@H]3COP(=O)(O)O[C@H]3C[C@H](n4cc(C)c(=O)[nH]c4=O)O[C@@H]3COP(=O)(OCCSC(=O)C(C)(C)C)O[C@H]3C[C@H](n4cc(C)c(=O)[nH]c4=O)O[C@@H]3COP(=O)(O)O[C@H]3C[C@H](n4cc(C)c(=O)[nH]c4=O)O[C@@H]3COP(=O)(OCCSC(=O)C(C)(C)C)O[C@H]3C[C@H](n4cc(C)c(=O)[nH]c4=O)O[C@@H]3COP(=O)(O)O[C@H]3C[C@H](n4cc(C)c(=O)[nH]c4=O)O[C@@H]3COP(=O)(OCCSC(=O)C(C)(C)C)O[C@H]3C[C@H](n4cc(C)c(=O)[nH]c4=O)O[C@@H]3COP(=O)(O)O[C@H]3C[C@H](n4cc(C)c(=O)[nH]c4=O)O[C@@H]3COP(=O)(OCCSC(=O)C(C)(C)C)O[C@H]3C[C@H](n4cc(C)c(=O)[nH]c4=O)O[C@@H]3COP(=O)(O)O[C@H]3C[C@H](n4cc(C)c(=O)[nH]c4=O)O[C@@H]3COP(=O)(OCCSC(=O)C(C)(C)C)O[C@H]3C[C@H](n4cc(C)c(=O)[nH]c4=O)O[C@@H]3CO)O2)c(=O)[nH]c1=O (stereo not given in full) | 1 |  | 48.8 | Stable
Cc1cn([C@H]2C[C@H](OP(=O)(O)OC[C@H]3O[C@@H](n4cc(C)c(=O)[nH]c4=O)C[C@@H]3OP(=S)(OCCSC(=O)C(C)(C)C)OC[C@H]3O[C@@H](n4cc(C)c(=O)[nH]c4=O)C[C@@H]3OP(=O)(O)OC[C@H]3O[C@@H](n4cc(C)c(=O)[nH]c4=O)C[C@@H]3OP(=S)(OCCSC(=O)C(C)(C)C)OC[C@H]3O[C@@H](n4cc(C)c(=O)[nH]c4=O)C[C@@H]3OP(=O)(O)OC[C@H]3O[C@@H](n4cc(C)c(=O)[nH]c4=O)C[C@@H]3OP(=S)(OCCSC(=O)C(C)(C)C)OC[C@H]3O[C@@H](n4cc(C)c(=O)[nH]c4=O)C[C@@H]3OP(=O)(O)OC[C@H]3O[C@@H](n4cc(C)c(=O)[nH]c4=O)C[C@@H]3OP(=S)(OCCSC(=O)C(C)(C)C)OC[C@H]3O[C@@H](n4cc(C)c(=O)[nH]c4=O)C[C@@H]3OP(=O)(O)OC[C@H]3O[C@@H](n4cc(C)c(=O)[nH]c4=O)C[C@@H]3OP(=S)(OCCSC(=O)C(C)(C)C)OC[C@H]3O[C@@H](n4cc(C)c(=O)[nH]c4=O)C[C@@H]3OP(=O)(O)OC[C@H]3O[C@@H](n4cc(C)c(=O)[nH]c4=O)C[C@@H]3OP(O)(=S)OCCSC(=O)C(C)(C)C)[C@@H](CO)O2)c(=O)[nH]c1=O (stereo not given in full) | 2.5 |  | 51.7 | Stable
Cc1cn([C@H]2C[C@H](OP(=O)(O)S)[C@@H](COP(=S)(OCCSC(=O)C(C)(C)C)O[C@H]3C[C@H](n4cc(C)c(=O)[nH]c4=O)O[C@@H]3COP(=O)(S)O[C@H]3C[C@H](n4cc(C)c(=O)[nH]c4=O)O[C@@H]3COP(=S)(OCCSC(=O)C(C)(C)C)O[C@H]3C[C@H](n4cc(C)c(=O)[nH]c4=O)O[C@@H]3COP(=O)(S)O[C@H]3C[C@H](n4cc(C)c(=O)[nH]c4=O)O[C@@H]3COP(=S)(OCCSC(=O)C(C)(C)C)O[C@H]3C[C@H](n4cc(C)c(=O)[nH]c4=O)O[C@@H]3COP(=O)(S)O[C@H]3C[C@H](n4cc(C)c(=O)[nH]c4=O)O[C@@H]3COP(=S)(OCCSC(=O)C(C)(C)C)O[C@H]3C[C@H](n4cc(C)c(=O)[nH]c4=O)O[C@@H]3COP(=O)(S)O[C@H]3C[C@H](n4cc(C)c(=O)[nH]c4=O)O[C@@H]3COP(=S)(OCCSC(=O)C(C)(C)C)O[C@H]3C[C@H](n4cc(C)c(=O)[nH]c4=O)O[C@@H]3COP(=O)(S)O[C@H]3C[C@H](n4cc(C)c(=O)[nH]c4=O)O[C@@H]3COP(=S)(OCCSC(=O)C(C)(C)C)O[C@H]3C[C@H](n4cc(C)c(=O)[nH]c4=O)O[C@@H]3CO)O2)c(=O)[nH]c1=O (stereo not given in full) | 17 |  | 58.4 | Stable
